Reference: patent publication US20260166021A1, “POLYMORPHIC FORMS OF A SOLUBLE EPOXIDE HYDROLASE INHIBITOR AND FORMULATIONS THEREOF” (EicOsis, LLC, priority 2022, published 2026)
Like-named read-outs stand apart in the source and are kept apart here.

Test: Solubility screening of Formula (I) in crystallization solvents at RT and 50° C. (TABLE 3)
Format: physicochemical
Conditions: for solubility: thermodynamic from solid
Procedure: This example covers crystallization of Formula (I) in multiple solvent systems. Solvents were selected to span a range of polarities, functionalities, and classifications according to the International Conference on Harmonization (ICH) with preferences given to class II and class III solvents. […] After each addition of solvent, the vials were shaken and visually inspected for residual solids. If required, heating to 50° C. or heated to reflux (for low boiling point solvents) for approximately two minutes was performed to ensure complete dissolution. If residual solids remained, additional solvent aliquots were added. The solvent addition was discontinued when complete dissolution was achieved. […]

CC[C@H](C)C(=O)N1CCC(NC(=O)Nc2ccc(OC(F)(F)F)c(F)c2)CC1 [Formula (I), (S)-1-(3-fluoro-4-(trifluoromethoxy)phenyl)-3-(1-(2-methylbutanoyl)piperidin-4-yl)urea]
Soluble? (2-MeTHF, RT, Vol 0.2 mL): Yes
solubility (2-butanone (MEK), organic solvent or mixture, MEK, RT, read-out: Nominal Solubility): 50.4 mg/mL
solubility (2-butanone (MEK), organic solvent or mixture, MEK, RT, read-out: Solubility Range): ≥ 50.4 mg/mL
solubility (2-methyltetrahydrofuran (2-MeTHF), organic solvent or mixture, 2-MeTHF, RT, read-out: Nominal Solubility): 25.2 mg/mL
solubility (2-methyltetrahydrofuran (2-MeTHF), organic solvent or mixture, 2-MeTHF, RT, read-out: Solubility Range): 25.2 to 50.4 mg/mL
Soluble? (ACN, RT, Vol 0.1 mL): Yes
Soluble? (Acetone, RT, Vol 0.1 mL): Yes
Soluble? (DCM, RT, Vol 0.1 mL): Yes
solubility (DMF, organic solvent or mixture, DMF, RT, read-out: Nominal Solubility): 46.1 mg/mL
solubility (DMF, organic solvent or mixture, DMF, RT, read-out: Solubility Range): ≥ 46.1 mg/mL
Soluble? (DMF, RT, Vol 0.1 mL): Yes
solubility (DMSO, organic solvent or mixture, DMSO, RT, read-out: Nominal Solubility): 47.8 mg/mL
solubility (DMSO, organic solvent or mixture, DMSO, RT, read-out: Solubility Range): ≥ 47.8 mg/mL
Soluble? (DMSO, RT, Vol 0.1 mL): Yes
Soluble? (Dioxane, RT, Vol 0.5 mL): Yes
Soluble? (EtOAc, RT, Vol 0.1 mL): Yes
Soluble? (EtOH, RT, Vol 0.1 mL): Yes
Soluble? (IPA, RT, Vol 0.1 mL): Yes
Soluble? (IPAC, RT, Vol 0.2 mL): Yes
Soluble? (MEK, RT, Vol 0.1 mL): Yes
Soluble? (MIBK, RT, Vol 0.1 mL): Yes
Soluble? (MTBE, 50° C., Vol 1.0 mL): Yes
Soluble? (MeOH, RT, Vol 0.1 mL): Yes
solubility (NMP, organic solvent or mixture, NMP, RT, read-out: Nominal Solubility): 55.2 mg/mL
solubility (NMP, organic solvent or mixture, NMP, RT, read-out: Solubility Range): ≥ 55.2 mg/mL
Soluble? (NMP, RT, Vol 0.1 mL): Yes
Soluble? (THF, RT, Vol 0.1 mL): Yes
Soluble? (Toluene, 50° C., Vol 0.5 mL): Yes
Soluble? (Water, 50° C., Vol 4.0 mL): No
solubility (acetone, organic solvent or mixture, Acetone, RT, read-out: Nominal Solubility): 43.7 mg/mL
solubility (acetone, organic solvent or mixture, Acetone, RT, read-out: Solubility Range): ≥ 43.7 mg/mL
solubility (acetonitrile (ACN), organic solvent or mixture, ACN, RT, read-out: Nominal Solubility): 48.3 mg/mL
solubility (acetonitrile (ACN), organic solvent or mixture, ACN, RT, read-out: Solubility Range): ≥ 48.3 mg/mL
Soluble? (c-Hexane, 50° C., Vol 4.0 mL): No
solubility (c-hexane, 50 °C, organic solvent or mixture, c-Hexane, 50° C., read-out: Solubility Range): < 1.17 mg/mL
solubility (cyclohexane (c-hexane), 50 °C, organic solvent or mixture, c-Hexane, 50° C., read-out: Nominal Solubility): < 1.17 mg/mL
solubility (dichloromethane (DCM), organic solvent or mixture, DCM, RT, read-out: Nominal Solubility): 46.6 mg/mL
solubility (dichloromethane (DCM), organic solvent or mixture, DCM, RT, read-out: Solubility Range): ≥ 46.6 mg/mL
solubility (dioxane, organic solvent or mixture, Dioxane, RT, read-out: Nominal Solubility): 9.36 mg/mL
solubility (dioxane, organic solvent or mixture, Dioxane, RT, read-out: Solubility Range): 9.36 to 23.4 mg/mL
solubility (ethanol, organic solvent or mixture, EtOH, RT, read-out: Nominal Solubility): 41.2 mg/mL
solubility (ethanol, organic solvent or mixture, EtOH, RT, read-out: Solubility Range): ≥ 41.2 mg/mL
solubility (ethyl acetate (EtOAc), organic solvent or mixture, EtOAc, RT, read-out: Nominal Solubility): 54.3 mg/mL
solubility (ethyl acetate (EtOAc), organic solvent or mixture, EtOAc, RT, read-out: Solubility Range): ≥ 54.3 mg/mL
solubility (isopropanol (IPA), organic solvent or mixture, IPA, RT, read-out: Nominal Solubility): 56 mg/mL
solubility (isopropanol (IPA), organic solvent or mixture, IPA, RT, read-out: Solubility Range): ≥ 56 mg/mL
solubility (isopropyl acetate (IPAc), organic solvent or mixture, IPAC, RT, read-out: Nominal Solubility): 23.4 mg/mL
solubility (isopropyl acetate (IPAc), organic solvent or mixture, IPAC, RT, read-out: Solubility Range): 23.4 to 46.7 mg/mL
solubility (methanol, organic solvent or mixture, MeOH, RT, read-out: Nominal Solubility): 43.2 mg/mL
solubility (methanol, organic solvent or mixture, MeOH, RT, read-out: Solubility Range): ≥ 43.2 mg/mL
solubility (methyl isobutyl ketone (MIBK), organic solvent or mixture, MIBK, RT, read-out: Nominal Solubility): 48 mg/mL
solubility (methyl isobutyl ketone (MIBK), organic solvent or mixture, MIBK, RT, read-out: Solubility Range): ≥ 48 mg/mL
solubility (methyl tert-butyl ether (MTBE), 50 °C, organic solvent or mixture, MTBE, 50° C., read-out: Nominal Solubility): 5.68 mg/mL
solubility (methyl tert-butyl ether (MTBE), 50 °C, organic solvent or mixture, MTBE, 50° C., read-out: Solubility Range): 5.68 to 11.4 mg/mL
Soluble? (n-BuOH, RT, Vol 0.1 mL): Yes
Soluble? (n-Heptane, 50° C., Vol 4.0 mL): No
Soluble? (n-Propanol, RT, Vol 0.1 mL): Yes
solubility (n-butanol (n-BuOH), organic solvent or mixture, n-BuOH, RT, read-out: Nominal Solubility): 42.6 mg/mL
solubility (n-butanol (n-BuOH), organic solvent or mixture, n-BuOH, RT, read-out: Solubility Range): ≥ 42.6 mg/mL
solubility (n-heptane, 50 °C, organic solvent or mixture, n-Heptane, 50° C., read-out: Nominal Solubility): < 1.32 mg/mL
solubility (n-heptane, 50 °C, organic solvent or mixture, n-Heptane, 50° C., read-out: Solubility Range): < 1.32 mg/mL
solubility (n-propanol, organic solvent or mixture, n-Propanol, RT, read-out: Nominal Solubility): 52.2 mg/mL
solubility (n-propanol, organic solvent or mixture, n-Propanol, RT, read-out: Solubility Range): ≥ 52.2 mg/mL
solubility (tetrahydrofuran (THF), organic solvent or mixture, THF, RT, read-out: Nominal Solubility): 48 mg/mL
solubility (tetrahydrofuran (THF), organic solvent or mixture, THF, RT, read-out: Solubility Range): ≥ 48 mg/mL
solubility (toluene, 50 °C, organic solvent or mixture, Toluene, 50° C., read-out: Nominal Solubility): 10 mg/mL
solubility (toluene, 50 °C, organic solvent or mixture, Toluene, 50° C., read-out: Solubility Range): 10 to 25 mg/mL
solubility (water, 50 °C, water, Water, 50° C., read-out: Nominal Solubility): < 1.36 mg/mL
solubility (water, 50 °C, water, Water, 50° C., read-out: Solubility Range): < 1.36 mg/mL
